Source: ChEMBL document CHEMBL1139626, “Total asymmetric synthesis of (-)-conduramine B-1 and of its enantiomer. N-Benzyl derivatives of conduramine B-1 are beta-glucosidase inhibitors” (Bioorg Med Chem Lett, 2005)
Active and inactive are the calls of the source. The rule behind the calls is not given here.

system: Prunus dulcis; assay: Percent inhibition against Beta Glucosidase from Almonds at 1 mM

inhibition	Compound
97%	OC1C=CC(NCc2ccc(-c3ccccc3)cc2)C(O)C1O (stereo in doubt; 4i)

molecular target: Beta-glucosidase A (Caldicellulosiruptor saccharolyticus) (UniProt P10482); assay: Percent inhibition against Beta Glucosidase from Caldocellum saccharolyticum at 1 mM
Sequence (P10482 whole entry): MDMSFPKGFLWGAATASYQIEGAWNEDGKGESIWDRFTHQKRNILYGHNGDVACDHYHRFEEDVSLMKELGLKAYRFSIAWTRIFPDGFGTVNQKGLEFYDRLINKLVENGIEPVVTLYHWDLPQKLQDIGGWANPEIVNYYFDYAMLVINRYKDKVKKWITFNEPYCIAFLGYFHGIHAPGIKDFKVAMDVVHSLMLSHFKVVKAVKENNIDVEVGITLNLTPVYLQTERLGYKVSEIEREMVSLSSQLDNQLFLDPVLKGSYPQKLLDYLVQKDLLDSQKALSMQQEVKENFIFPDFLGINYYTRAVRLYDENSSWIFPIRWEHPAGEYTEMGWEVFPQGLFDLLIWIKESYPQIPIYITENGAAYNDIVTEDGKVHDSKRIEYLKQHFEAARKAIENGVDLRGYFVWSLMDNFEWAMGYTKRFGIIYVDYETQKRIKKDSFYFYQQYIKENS

inhibition	Compound
43%	COc1cc(O)c(CNC2C=CC(O)C(O)C2O)c(Br)c1 (stereo in doubt; 4l)
94%	OC1C=CC(NCc2ccc(-c3ccccc3)cc2)C(O)C1O (stereo in doubt; 4i)
83%	CCCCCCCCN(CCCCCCCC)C1C=CC(O)C(O)C1O (racemic)

molecular target: Glucoamylase (Aspergillus niger) (UniProt P69328); assay: Percent inhibition against Amyloglucosidase from Aspergillus niger at 1 mM concentration
Sequence (P69328 whole entry): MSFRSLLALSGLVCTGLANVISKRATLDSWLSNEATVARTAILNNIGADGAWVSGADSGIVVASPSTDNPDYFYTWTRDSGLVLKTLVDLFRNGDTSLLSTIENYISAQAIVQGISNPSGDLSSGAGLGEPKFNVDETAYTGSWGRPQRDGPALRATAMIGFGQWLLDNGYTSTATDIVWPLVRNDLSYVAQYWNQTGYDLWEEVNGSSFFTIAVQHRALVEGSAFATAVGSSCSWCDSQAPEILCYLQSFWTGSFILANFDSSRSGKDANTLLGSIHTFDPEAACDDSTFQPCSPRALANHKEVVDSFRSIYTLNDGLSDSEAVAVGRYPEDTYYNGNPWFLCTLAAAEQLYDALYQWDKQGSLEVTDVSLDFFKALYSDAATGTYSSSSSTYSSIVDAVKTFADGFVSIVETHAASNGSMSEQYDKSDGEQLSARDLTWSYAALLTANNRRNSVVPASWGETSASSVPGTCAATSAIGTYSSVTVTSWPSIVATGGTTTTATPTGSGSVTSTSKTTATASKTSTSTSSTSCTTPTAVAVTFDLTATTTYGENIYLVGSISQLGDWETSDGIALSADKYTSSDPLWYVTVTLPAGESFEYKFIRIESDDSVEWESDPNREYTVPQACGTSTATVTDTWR

inhibition	Compound
42%	Oc1ccccc1CNC1C=CC(O)C(O)C1O (stereo in doubt)

system: Prunus dulcis; assay: Inhibition against Beta Glucosidase from Almonds at 1 mM; (ni=no inhibition)

Compound	inhibition
Oc1ccccc1CNC1C=CC(O)C(O)C1O (stereo in doubt)	inactive
COc1cc(O)c(CNC2C=CC(O)C(O)C2O)c(Br)c1 (single isomer, unassigned)	inactive
CCCCCCCCN(CCCCCCCC)C1C=CC(O)C(O)C1O (racemic)	inactive

Further lines, results first:

inhibition	Compound
inactive	COc1cc(O)c(CNC2C=CC(O)C(O)C2O)c(Br)c1 (stereo in doubt; 4l)
inactive	OC1C=CC(NCc2ccc(Oc3ccccc3)cc2)C(O)C1O (stereo in doubt)
inactive	NC1C=CC(O)C(O)C1O (single isomer, unassigned; (-))
inactive	NC1C=CC(O)C(O)C1O (stereo in doubt; (+)-3)

system: not listed separately; assay: Inhibition against Alpha Glucosidase from yeast at 1 mM; (ni=no inhibition)

Compound	inhibition
Oc1ccccc1CNC1C=CC(O)C(O)C1O (stereo in doubt)	inactive
COc1cc(O)c(CNC2C=CC(O)C(O)C2O)c(Br)c1 (single isomer, unassigned)	inactive
OC1C=CC(NCc2ccc(-c3ccccc3)cc2)C(O)C1O (stereo in doubt; 4i)	inactive
CCCCCCCCN(CCCCCCCC)C1C=CC(O)C(O)C1O (racemic)	inactive

Continued, values first:

inhibition	Compound
inactive	COc1cc(O)c(CNC2C=CC(O)C(O)C2O)c(Br)c1 (stereo in doubt; 4l)
inactive	OC1C=CC(NCc2ccc(Oc3ccccc3)cc2)C(O)C1O (stereo in doubt)
inactive	NC1C=CC(O)C(O)C1O (single isomer, unassigned; (-))
inactive	NC1C=CC(O)C(O)C1O (stereo in doubt; (+)-3)

molecular target: not listed separately; assay: Inhibitory activity against Beta Glucosidase from Almonds; design: species or system Prunus dulcis

Ki	Compound
10 µM	OC1C=CC(NCc2ccccc2)C(O)C1O (stereo in doubt; 4e)
25 µM	COc1ccc(CNC2C=CC(O)C(O)C2O)cc1 (stereo in doubt; 4g)

molecular target: T1, Glucoamylase 1 (Rhizopus oryzae) (UniProt P07683); assay: Percent inhibition against Amyloglucosidase from Rhizopus mold at 1 mM
T1 sequence (whole entry): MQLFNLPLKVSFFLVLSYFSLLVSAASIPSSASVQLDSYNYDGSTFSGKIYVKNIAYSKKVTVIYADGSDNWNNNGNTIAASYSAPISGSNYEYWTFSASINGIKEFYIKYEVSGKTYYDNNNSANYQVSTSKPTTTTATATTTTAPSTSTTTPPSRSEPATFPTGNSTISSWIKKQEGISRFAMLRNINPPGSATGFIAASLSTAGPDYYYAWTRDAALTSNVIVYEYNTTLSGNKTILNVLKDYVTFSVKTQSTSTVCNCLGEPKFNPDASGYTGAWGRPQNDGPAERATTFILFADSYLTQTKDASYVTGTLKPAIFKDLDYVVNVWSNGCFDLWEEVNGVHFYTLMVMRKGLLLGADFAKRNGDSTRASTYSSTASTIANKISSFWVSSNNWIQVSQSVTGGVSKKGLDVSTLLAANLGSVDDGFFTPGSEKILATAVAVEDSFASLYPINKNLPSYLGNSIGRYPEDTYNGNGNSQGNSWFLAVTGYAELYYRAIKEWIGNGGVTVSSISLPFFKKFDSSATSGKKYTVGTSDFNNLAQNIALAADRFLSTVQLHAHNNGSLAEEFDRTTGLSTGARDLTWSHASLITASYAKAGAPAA

inhibition	Compound
41%	Oc1ccccc1CNC1C=CC(O)C(O)C1O (stereo in doubt)

molecular target: Beta-glucosidase A (Caldicellulosiruptor saccharolyticus) (UniProt P10482); assay: Inhibition against Beta Glucosidase from Caldocellum saccharolyticum at 1 mM; (ni=no inhibition)

Compound	inhibition
Oc1ccccc1CNC1C=CC(O)C(O)C1O (stereo in doubt)	inactive
COc1cc(O)c(CNC2C=CC(O)C(O)C2O)c(Br)c1 (single isomer, unassigned)	inactive

Results, then the compound that gave them:

inhibition	Compound
inactive	OC1C=CC(NCc2ccc(Oc3ccccc3)cc2)C(O)C1O (stereo in doubt)
inactive	NC1C=CC(O)C(O)C1O (single isomer, unassigned; (-))
inactive	NC1C=CC(O)C(O)C1O (stereo in doubt; (+)-3)

molecular target: T2, Exo-1,4-beta-xylosidase xlnD (Aspergillus niger) (UniProt O00089); assay: Inhibition against Beta-xylosidase from Aspergillus niger at 1 mM; (ni=no inhibition)
T2 sequence (whole entry): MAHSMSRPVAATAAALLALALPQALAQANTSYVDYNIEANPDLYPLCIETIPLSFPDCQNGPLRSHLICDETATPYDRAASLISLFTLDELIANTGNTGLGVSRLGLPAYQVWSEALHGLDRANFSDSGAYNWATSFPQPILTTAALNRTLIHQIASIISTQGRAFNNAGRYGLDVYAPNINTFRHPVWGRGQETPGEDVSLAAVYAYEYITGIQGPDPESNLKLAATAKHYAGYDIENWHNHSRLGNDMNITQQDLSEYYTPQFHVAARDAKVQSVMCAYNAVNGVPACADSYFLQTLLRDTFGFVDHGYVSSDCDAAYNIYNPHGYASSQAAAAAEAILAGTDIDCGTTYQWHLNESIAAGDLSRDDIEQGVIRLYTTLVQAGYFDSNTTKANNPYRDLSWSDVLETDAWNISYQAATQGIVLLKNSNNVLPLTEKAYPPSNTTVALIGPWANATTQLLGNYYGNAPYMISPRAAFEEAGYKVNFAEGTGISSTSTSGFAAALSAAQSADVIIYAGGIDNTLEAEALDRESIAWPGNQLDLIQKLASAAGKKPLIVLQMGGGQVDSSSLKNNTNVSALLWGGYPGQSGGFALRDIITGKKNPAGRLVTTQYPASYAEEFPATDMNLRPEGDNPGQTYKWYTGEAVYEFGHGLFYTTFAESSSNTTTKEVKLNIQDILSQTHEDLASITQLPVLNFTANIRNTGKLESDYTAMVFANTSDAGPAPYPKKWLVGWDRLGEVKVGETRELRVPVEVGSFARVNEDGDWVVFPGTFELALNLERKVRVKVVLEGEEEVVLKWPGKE

Compound	inhibition
Oc1ccccc1CNC1C=CC(O)C(O)C1O (stereo in doubt)	inactive
COc1cc(O)c(CNC2C=CC(O)C(O)C2O)c(Br)c1 (single isomer, unassigned)	inactive
OC1C=CC(NCc2ccc(-c3ccccc3)cc2)C(O)C1O (stereo in doubt; 4i)	inactive
CCCCCCCCN(CCCCCCCC)C1C=CC(O)C(O)C1O (racemic)	inactive

More lines, now with the values ahead:

inhibition	Compound
inactive	COc1cc(O)c(CNC2C=CC(O)C(O)C2O)c(Br)c1 (stereo in doubt; 4l)
inactive	OC1C=CC(NCc2ccc(Oc3ccccc3)cc2)C(O)C1O (stereo in doubt)
inactive	NC1C=CC(O)C(O)C1O (single isomer, unassigned; (-))
inactive	NC1C=CC(O)C(O)C1O (stereo in doubt; (+)-3)

molecular target: T1, Glucoamylase 1 (Rhizopus oryzae); assay: Inhibition against Amyloglucosidase from Rhizopus mold at 1 mM; (ni=no inhibition)

Compound	inhibition
COc1cc(O)c(CNC2C=CC(O)C(O)C2O)c(Br)c1 (single isomer, unassigned)	inactive
OC1C=CC(NCc2ccc(-c3ccccc3)cc2)C(O)C1O (stereo in doubt; 4i)	inactive
CCCCCCCCN(CCCCCCCC)C1C=CC(O)C(O)C1O (racemic)	inactive

Second part, the compound after the results:

inhibition	Compound
inactive	COc1cc(O)c(CNC2C=CC(O)C(O)C2O)c(Br)c1 (stereo in doubt; 4l)
inactive	OC1C=CC(NCc2ccc(Oc3ccccc3)cc2)C(O)C1O (stereo in doubt)
inactive	NC1C=CC(O)C(O)C1O (single isomer, unassigned; (-))
inactive	NC1C=CC(O)C(O)C1O (stereo in doubt; (+)-3)

molecular target: not listed separately; assay: Inhibitory concentration against Beta Glucosidase from Almonds; design: species or system Prunus dulcis

IC50	Compound
32 µM	OC1C=CC(NCc2ccccc2)C(O)C1O (stereo in doubt; 4e)
52 µM	COc1ccc(CNC2C=CC(O)C(O)C2O)cc1 (stereo in doubt; 4g)
72 µM	Oc1ccc(CNC2C=CC(O)C(O)C2O)cc1 (stereo in doubt; 4f)

molecular target: Glucoamylase (Aspergillus niger) (UniProt P69328); assay: Inhibition against Amyloglucosidase from Aspergillus niger at 1 mM; (ni=no inhibition)

Compound	inhibition
COc1cc(O)c(CNC2C=CC(O)C(O)C2O)c(Br)c1 (single isomer, unassigned)	inactive
OC1C=CC(NCc2ccc(-c3ccccc3)cc2)C(O)C1O (stereo in doubt; 4i)	inactive
CCCCCCCCN(CCCCCCCC)C1C=CC(O)C(O)C1O (racemic)	inactive

More lines, now with the values ahead:

inhibition	Compound
inactive	COc1cc(O)c(CNC2C=CC(O)C(O)C2O)c(Br)c1 (stereo in doubt; 4l)
inactive	OC1C=CC(NCc2ccc(Oc3ccccc3)cc2)C(O)C1O (stereo in doubt)
inactive	NC1C=CC(O)C(O)C1O (single isomer, unassigned; (-))
inactive	NC1C=CC(O)C(O)C1O (stereo in doubt; (+)-3)

molecular target: T3, Alpha-glucosidase (Oryza sativa Japonica Group) (UniProt Q9LGC6); assay: Inhibition against Alpha Glucosidase from rice at 1 mM; (ni=no inhibition)
T3 sequence (whole entry): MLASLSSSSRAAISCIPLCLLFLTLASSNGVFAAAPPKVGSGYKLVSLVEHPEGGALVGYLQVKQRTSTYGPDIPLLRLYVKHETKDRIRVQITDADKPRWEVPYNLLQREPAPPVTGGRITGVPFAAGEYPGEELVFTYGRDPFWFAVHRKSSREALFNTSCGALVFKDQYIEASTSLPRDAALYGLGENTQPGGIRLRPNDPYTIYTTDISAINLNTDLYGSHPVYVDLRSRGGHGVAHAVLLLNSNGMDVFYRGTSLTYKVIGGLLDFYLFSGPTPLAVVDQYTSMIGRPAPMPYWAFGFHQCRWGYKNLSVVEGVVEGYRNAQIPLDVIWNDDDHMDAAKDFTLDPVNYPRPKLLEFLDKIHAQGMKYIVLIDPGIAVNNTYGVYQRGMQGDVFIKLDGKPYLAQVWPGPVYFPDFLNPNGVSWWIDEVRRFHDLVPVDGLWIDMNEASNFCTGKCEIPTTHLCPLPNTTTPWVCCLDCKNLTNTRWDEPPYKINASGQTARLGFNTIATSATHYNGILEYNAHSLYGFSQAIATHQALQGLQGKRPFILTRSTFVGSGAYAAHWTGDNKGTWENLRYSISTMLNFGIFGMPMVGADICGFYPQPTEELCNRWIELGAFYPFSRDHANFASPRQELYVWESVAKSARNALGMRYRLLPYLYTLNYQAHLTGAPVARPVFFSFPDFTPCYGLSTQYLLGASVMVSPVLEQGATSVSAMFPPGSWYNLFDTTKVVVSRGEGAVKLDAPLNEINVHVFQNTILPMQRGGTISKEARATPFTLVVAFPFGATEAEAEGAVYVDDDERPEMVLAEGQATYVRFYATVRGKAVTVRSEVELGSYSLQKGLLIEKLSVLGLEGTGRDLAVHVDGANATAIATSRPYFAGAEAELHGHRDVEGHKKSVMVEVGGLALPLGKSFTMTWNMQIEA

Compound	inhibition
Oc1ccccc1CNC1C=CC(O)C(O)C1O (stereo in doubt)	inactive
COc1cc(O)c(CNC2C=CC(O)C(O)C2O)c(Br)c1 (single isomer, unassigned)	inactive
OC1C=CC(NCc2ccc(-c3ccccc3)cc2)C(O)C1O (stereo in doubt; 4i)	inactive
CCCCCCCCN(CCCCCCCC)C1C=CC(O)C(O)C1O (racemic)	inactive

Next, values leading:

inhibition	Compound
inactive	COc1cc(O)c(CNC2C=CC(O)C(O)C2O)c(Br)c1 (stereo in doubt; 4l)
inactive	OC1C=CC(NCc2ccc(Oc3ccccc3)cc2)C(O)C1O (stereo in doubt)
inactive	NC1C=CC(O)C(O)C1O (single isomer, unassigned; (-))
inactive	NC1C=CC(O)C(O)C1O (stereo in doubt; (+)-3)
